Here are results for two molecules from ChEMBL document CHEMBL3217594, “Structureactivity relationships of methyl-lysine reader antagonists” (Medchemcomm, 2012).

The test system of assay [1] is T1, Lethal(3)malignant brain tumor-like protein 1 (Homo sapiens), Q9Y468 [D355N].
T1 sequence (whole entry): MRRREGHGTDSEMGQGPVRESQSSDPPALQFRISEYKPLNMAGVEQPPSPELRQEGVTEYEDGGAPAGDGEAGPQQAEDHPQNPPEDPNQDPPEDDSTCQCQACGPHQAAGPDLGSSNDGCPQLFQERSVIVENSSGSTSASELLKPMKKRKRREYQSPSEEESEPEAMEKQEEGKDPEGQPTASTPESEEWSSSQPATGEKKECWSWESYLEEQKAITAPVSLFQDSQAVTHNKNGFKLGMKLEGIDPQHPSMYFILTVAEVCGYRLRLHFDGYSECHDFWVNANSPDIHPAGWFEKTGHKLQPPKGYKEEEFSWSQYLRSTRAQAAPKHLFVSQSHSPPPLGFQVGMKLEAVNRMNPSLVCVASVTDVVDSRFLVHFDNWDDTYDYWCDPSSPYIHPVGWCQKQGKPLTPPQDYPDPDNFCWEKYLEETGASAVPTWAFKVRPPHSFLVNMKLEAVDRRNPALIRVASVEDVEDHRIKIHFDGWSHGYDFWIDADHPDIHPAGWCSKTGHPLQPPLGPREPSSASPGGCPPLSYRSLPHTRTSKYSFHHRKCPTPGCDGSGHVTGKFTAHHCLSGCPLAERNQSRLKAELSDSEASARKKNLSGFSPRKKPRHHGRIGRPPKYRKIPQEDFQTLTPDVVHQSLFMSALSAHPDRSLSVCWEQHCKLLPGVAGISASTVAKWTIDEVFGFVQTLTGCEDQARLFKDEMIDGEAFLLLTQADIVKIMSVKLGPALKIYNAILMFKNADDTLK
As to conditions: 5 to 25 uM.
Description: Inhibition of GST-fused L3MBTL1 3xMBT-D355N mutant (unknown origin)/biotinylated H4K20Me1 peptide interaction at 5 to 25 uM by pull down assay based western blot analysis

In assay [2] the target is TP53-binding protein 1 (Homo sapiens) (UniProt Q12888). Put plainly: Effect on GST-fused 53BP1 Tudor domain (unknown origin)/biotinylated H4K20Me1 peptide interaction assessed as binding of 53BP1 to H4K20Me1 at 25 uM by pull down assay based western blot analysis. In general terms: A western blot detects proteins with antibodies after separation by electrophoresis.

Activity calls are given as the source filed them. The calls are words filed in the database; no cut-off is given here.

Chain of TP53-binding protein 1 (Homo sapiens) (Q12888 whole entry, the tested form may be a part): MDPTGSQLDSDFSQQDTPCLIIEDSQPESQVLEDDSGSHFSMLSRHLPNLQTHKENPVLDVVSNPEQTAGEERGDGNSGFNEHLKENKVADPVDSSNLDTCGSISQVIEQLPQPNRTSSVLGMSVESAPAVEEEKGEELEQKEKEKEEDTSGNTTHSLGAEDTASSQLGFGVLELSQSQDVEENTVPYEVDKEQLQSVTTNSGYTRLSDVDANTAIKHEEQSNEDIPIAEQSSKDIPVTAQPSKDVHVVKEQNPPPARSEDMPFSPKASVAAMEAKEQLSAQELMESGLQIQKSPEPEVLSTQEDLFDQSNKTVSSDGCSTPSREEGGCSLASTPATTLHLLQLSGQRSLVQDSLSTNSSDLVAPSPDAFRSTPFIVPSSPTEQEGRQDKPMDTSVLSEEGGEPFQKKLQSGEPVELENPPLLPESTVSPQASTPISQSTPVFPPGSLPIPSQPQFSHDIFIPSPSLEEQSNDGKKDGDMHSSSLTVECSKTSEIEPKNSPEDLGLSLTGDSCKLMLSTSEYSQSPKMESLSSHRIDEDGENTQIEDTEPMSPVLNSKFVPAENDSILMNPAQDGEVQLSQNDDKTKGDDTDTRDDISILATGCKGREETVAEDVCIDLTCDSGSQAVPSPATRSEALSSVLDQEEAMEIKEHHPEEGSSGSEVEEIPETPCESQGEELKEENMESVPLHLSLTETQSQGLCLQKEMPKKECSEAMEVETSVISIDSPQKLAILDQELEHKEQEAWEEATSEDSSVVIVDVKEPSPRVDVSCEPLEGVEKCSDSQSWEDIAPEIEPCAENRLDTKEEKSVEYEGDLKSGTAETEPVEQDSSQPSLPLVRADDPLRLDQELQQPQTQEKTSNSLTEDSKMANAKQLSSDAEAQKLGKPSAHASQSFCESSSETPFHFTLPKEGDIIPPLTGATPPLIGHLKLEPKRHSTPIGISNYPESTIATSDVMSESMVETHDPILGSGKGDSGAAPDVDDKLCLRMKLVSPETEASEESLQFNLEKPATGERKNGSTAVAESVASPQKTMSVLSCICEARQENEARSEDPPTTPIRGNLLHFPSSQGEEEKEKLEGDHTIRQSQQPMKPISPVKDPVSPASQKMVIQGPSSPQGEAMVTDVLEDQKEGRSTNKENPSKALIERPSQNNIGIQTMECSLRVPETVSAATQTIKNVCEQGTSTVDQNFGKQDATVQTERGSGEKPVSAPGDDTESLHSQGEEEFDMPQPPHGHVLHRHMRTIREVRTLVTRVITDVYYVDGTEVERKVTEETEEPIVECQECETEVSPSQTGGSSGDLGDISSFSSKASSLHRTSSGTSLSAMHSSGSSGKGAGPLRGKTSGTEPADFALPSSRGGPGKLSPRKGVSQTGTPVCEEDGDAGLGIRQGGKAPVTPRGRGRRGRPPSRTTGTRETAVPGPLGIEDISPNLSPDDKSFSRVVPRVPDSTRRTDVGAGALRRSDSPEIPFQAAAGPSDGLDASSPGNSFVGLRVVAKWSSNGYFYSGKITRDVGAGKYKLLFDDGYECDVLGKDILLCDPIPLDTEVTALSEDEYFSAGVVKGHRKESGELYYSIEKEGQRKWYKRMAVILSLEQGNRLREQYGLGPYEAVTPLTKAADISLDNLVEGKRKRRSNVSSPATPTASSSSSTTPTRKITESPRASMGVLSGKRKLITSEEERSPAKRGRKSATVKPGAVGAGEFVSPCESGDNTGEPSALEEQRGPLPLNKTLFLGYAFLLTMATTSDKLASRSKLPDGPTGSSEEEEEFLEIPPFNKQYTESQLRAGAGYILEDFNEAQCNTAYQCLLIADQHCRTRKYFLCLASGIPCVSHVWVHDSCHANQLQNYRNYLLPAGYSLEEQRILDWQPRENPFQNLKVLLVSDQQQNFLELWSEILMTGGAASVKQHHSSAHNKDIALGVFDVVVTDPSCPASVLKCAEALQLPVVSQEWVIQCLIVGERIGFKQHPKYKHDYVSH

For `O=C(c1cccc(Br)c1)N1CCC(N2CCCC2)CC1`, the inhibition result in assay [1] is “inactive”. Further, the Activity in assay [2] came out at 106%.

Take `O=C(c1cccc(Br)c1)N1CCC(N2CCCCC2)CC1`: in assay [1], the inhibition result was “inactive”. In assay [2], the Activity turned out to be 91%.
